Results from US20250241965A1, “METHOD TO IMPROVE CELL VIABILITY OF CARDIOMYOCYTES” (UNIVERSITY OF WASHINGTON, priority 2022, published 2025).

Key:
[1] = test system: pluripotent stem cells (PSCs) differentiating to cardiomyocytes; assay: Apoptosis by AnnexinV staining (flow cytometry) during cardiomyocyte differentiation; format: cell-based
Text: (§1) FIG. 3 (top) illustrates the current best practice (CBP) differentiation methodology including timeline, base media, media supplements and the addition of small molecules. FIG. 3 (bottom) the experimental set up to test three different methodologies designed to improve the cell yield in comparison to CBP (1). To improve the total cell yield, adding an additional media change on the day just prior to the initiation of significant cell loss (2), or the addition of ROCK inhibitor at the points of small molecule addition (CHIR or WIKI, respectively) were tested. To monitor for the fate of cells in the experiment, the cultures were monitored for cell counts (both in single cell suspension and in aggregates), glucose, lactate, and pH using a Blood Gas Analyzer (BGA); apoptosis was analyzed by AnnexinV staining; additionally, mesoderm formation was monitored by flow cytometry for CD56 and PDGFRa to determine if the addition of ROCK inhibitor changed the developmental trajectory of the cells.
FIG. 6 illustrates that apoptosis correlates with the cell loss detected in CBP conditions (19-1) and media change (including Wiki) conditions (19-2), in comparison to ROCK inhibitor conditions (19-3). This illustration also includes an additional experimental set which includes addition of ROCK inhibitor at time-points of small molecule addition (20-1), or CBP conditions (20-2). […]

[2] = test system: pluripotent stem cells (PSCs) differentiating to cardiomyocytes; assay: Cell yield during differentiation of pluripotent stem cells to cardiomyocytes in suspension culture; format: cell-based; settings: for cell counts (cells/mL) during differentiation, FIG. 4: versus CBP conditions
Description: FIG. 1A depicts the timeline, base media, media supplements, small molecules for the differentiation of pluripotent stem cells to cardiomyocytes. Addition of CHIR, Wnt agonist, occurs at Day 3 of differentiation, while the Wnt antagonist Wiki, is added either 48 or 44 hours after CHIR addition. The timing from CHIR to WIKI addition is optimized for each cell line and/or reagent change to most efficiently induce cardiomyocye differentiation.
as §1
FIG. 4 (top) once again illustrates the experimental design as described in […], for reference. FIG. 4 (bottom) indicates the cell counts at multiple time-points from each condition during the differentiation of experiment #19. 19-1 is CBP conditions, 19-2 is media change at day 6 conditions (including the addition of Wiki 5 uM), 19-3 is conditions that received ROCK inhibitor at the time of small molecule addition. At day 6 of differentiation cells numbers in condition 19-3 were elevated to the point of needing to double the media volume and therefore cells were split into 19-3A and 19-3B.
involves multiple steps of PSC expansion and differentiation to the desired lineage. As presented here PSCs are thawed from a suspension PSC bank (PMID: 26318718) and aggregated in suspension culture, with the addition of the ROCK inhibitor Y-27632, shown to permit survival of dissociated PSCs (PMID: 17529971). Following expansion, the cells are induced to differentiate to mesoderm and then cardiomyocytes by modulating Wnt signaling using CHIR99021 to induce mesoderm (PMID: 23257984), followed small molecule Wnt inhibitor, WIKI4 (PMID: 23227175) to specify mesoderm to the cardiomyocyte lineage (FIG. 3).
loss during the addition of CHIR99021 and WIKI4. […] Additionally, at differentiation day 13, the culture with the addition of Y-27632 yielded nearly 4× more cardiomyocytes than cultures without. Subsequently Y-27632 was added to all cultures during the differentiation (FIG. 4).

Structure (SMILES) | AnnexinV staining (apoptosis), FIG. 6 ([1]; condition 19-2: media change at day 6 including Wiki) | cell loss by end of culture, FIG. 1B ([2]; additional WIKI4 on day 6 of differentiation, 8 uM CHIR) | cell counts (cells/mL) during differentiation, FIG. 4 ([2]; condition 19-2: media change at day 6 including addition of Wiki 5 uM) | cells/mL in the final culture, FIG. 1B ([2]; media change with no additional WIKI4 on day 6, Day 20 of differentiation) | AnnexinV staining (apoptosis), FIG. 6 ([1]; condition 19-3: ROCK inhibitor at time-points of small molecule addition) | yield of pre-cardiomyocytes ([2]; Y-27632 added in combination with CHIR99021 and WIKI4, measured at day 6 of differentiation (4.7E5 cells/mL without)) | cell counts (cells/mL) during differentiation, FIG. 4 ([2]; condition 19-3: ROCK inhibitor at the time of small molecule (CHIR, WIKI) addition) | cardiomyocyte yield relative to cultures without Y-27632 ([2]; differentiation day 13) | yield of pre-cardiomyocytes relative to culture without Y-27632 ([2]; in combination with CHIR99021 and WIKI4, day 6 of differentiation)
COc1ccc(-n2c(SCCCN3C(=O)c4cccc5cccc(c45)C3=O)nnc2-c2ccncc2)cc1 [WIKI4] | high | extensive loss of cells | even more rapid loss of cells | roughly 8E5 cells/mL | – | – | – | – | –
C[C@@H](N)[C@H]1CC[C@H](C(=O)Nc2ccncc2)CC1 [Y-27632] | – | – | – | – | low | 1.1E6 cells/mL | significantly higher cell numbers | ~4 × | greater than double the yield
